The values below come from PubChem BioAssay (NCI).

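Interpolation was linear, between the two tested concentrations surrounding the appropriate level; five concentrations were tested over 48 hours in 96-well plates. TGI marks complete inhibition of growth.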 Some results are limits rather than exact numbers.

Some test systems named below: SW-620 colon; MALME-3M melanoma; M14 melanoma; SK-OV-3 ovarian; HCC-2998 colon; HOP-92 NSCLC; NCI-H23 lung; EKVX NSCLC; HS 578T breast; SF-539 CNS; CAKI-1 renal; HCT-15 colon; HT29 colon; OVCAR-4 ovarian; NCI/ADR-RES ovarian; SF-268 CNS; SK-MEL-28 melanoma; NCI-H226 lung; OVCAR-3 ovarian; UACC-62 melanoma.
Holding throughout (experiment): NCI-60 cell line screen, 48 h

Take `N=C1/C(=C/c2ccco2)C(=O)N=C2SC=NN12`: the TGI in the assay on SW-620 colon, with MALME-3M melanoma, in the assay with M14 melanoma, in the assay on SK-OV-3 ovarian, in the assay on HCC-2998 colon and in the assay on HOP-92 NSCLC was more than 100 µM throughout. The TGI in the assay on NCI-H23 lung, with EKVX NSCLC, with HS 578T breast, in the assay on SF-539 CNS, in the assay on CAKI-1 renal and in the assay on HCT-15 colon was more than 100 µM each time. Besides, the TGI with HT29 colon, with OVCAR-4 ovarian, in the assay on NCI/ADR-RES ovarian, with SF-268 CNS, in the assay on SK-MEL-28 melanoma and in the assay with NCI-H226 lung was more than 100 µM each time. The TGI in the assay with OVCAR-3 ovarian and in the assay with UACC-62 melanoma was more than 100 µM throughout.
Take `O=S(=O)(Nc1nc2ccccc2nc1Nc1cccc2ccccc12)c1ccccc1`: the TGI in the assay on SW-620 colon is more than 100 µM; in the assay on MALME-3M melanoma it was more than 100 µM; with M14 melanoma, more than 100 µM; in the assay with SK-OV-3 ovarian, more than 100 µM; with HCC-2998 colon, more than 100 µM; in the assay on HOP-92 NSCLC it was 16.5 µM. The TGI was 64.4 µM in the assay on NCI-H23 lung; more than 100 µM in the assay with EKVX NSCLC; 95.2 µM in the assay on HS 578T breast; more than 100 µM in the assay with SF-539 CNS; more than 100 µM in the assay on CAKI-1 renal; 5.99 µM in the assay with OVCAR-4 ovarian. Moreover, the TGI in the assay on NCI/ADR-RES ovarian, in the assay with SF-268 CNS, in the assay on SK-MEL-28 melanoma, with NCI-H226 lung, in the assay with OVCAR-3 ovarian and in the assay with UACC-62 melanoma was more than 100 µM throughout.
In the case of `O=C(c1ccc(-c2ccccc2)cc1)N(Cc1cccnc1)C(=S)N(Cc1cccnc1)C(=O)c1ccc(-c2ccccc2)cc1`, the TGI in the assay on SW-620 colon, in the assay with MALME-3M melanoma, in the assay with M14 melanoma, in the assay with SK-OV-3 ovarian, in the assay with HCC-2998 colon and in the assay with HOP-92 NSCLC was more than 100 µM in each case. Moreover, the TGI with NCI-H23 lung, in the assay with EKVX NSCLC, in the assay on HS 578T breast, in the assay with SF-539 CNS, in the assay on CAKI-1 renal and in the assay with HCT-15 colon was more than 100 µM throughout. The TGI in the assay on HT29 colon, with OVCAR-4 ovarian, with NCI/ADR-RES ovarian, in the assay with SF-268 CNS, with SK-MEL-28 melanoma and in the assay with NCI-H226 lung was more than 100 µM throughout. The TGI in the assay with OVCAR-3 ovarian and in the assay with UACC-62 melanoma was more than 100 µM in each case.
Regarding `CCC(C#N)NCc1ccc(CNC(C#N)CC)cc1` (configuration not stated), the TGI in the assay with SW-620 colon, with MALME-3M melanoma, with M14 melanoma, in the assay on SK-OV-3 ovarian, in the assay on HCC-2998 colon and in the assay with HOP-92 NSCLC was more than 100 µM each time. The TGI in the assay on NCI-H23 lung, in the assay with EKVX NSCLC, with HS 578T breast, in the assay on SF-539 CNS, with CAKI-1 renal and with HCT-15 colon was more than 100 µM in each case. In addition, the TGI in the assay with HT29 colon, in the assay on OVCAR-4 ovarian, with NCI/ADR-RES ovarian, with SF-268 CNS, in the assay with SK-MEL-28 melanoma and with NCI-H226 lung was more than 100 µM throughout. Besides, the TGI in the assay on OVCAR-3 ovarian and in the assay on UACC-62 melanoma was more than 100 µM each time.
`C[C@]12CCC(=O)C=C1CC[C@@H]1[C@@H]2CC[C@]2(C)C(=O)/C(=C/c3ccncc3)C[C@@H]12`: the TGI in the assay on SW-620 colon is more than 100 µM; in the assay with MALME-3M melanoma, 33.8 µM; with M14 melanoma, 29.4 µM; with SK-OV-3 ovarian it was 56.7 µM; with HCC-2998 colon, 30.9 µM; in the assay on HOP-92 NSCLC, 42.8 µM. The TGI with NCI-H23 lung was 56.2 µM; in the assay on EKVX NSCLC, 35.6 µM; with HS 578T breast, more than 100 µM; with SF-539 CNS it was 46.1 µM; in the assay with CAKI-1 renal, 43.7 µM; in the assay with HCT-15 colon, 48.8 µM. The TGI was 32.7 µM in the assay with HT29 colon; 55.1 µM in the assay with OVCAR-4 ovarian; more than 100 µM with NCI/ADR-RES ovarian; 45 µM with SF-268 CNS; 45 µM in the assay with SK-MEL-28 melanoma; 34.6 µM in the assay with NCI-H226 lung. For the same molecule, the TGI with OVCAR-3 ovarian was 27.1 µM; with UACC-62 melanoma it was 25.6 µM.
Take `O=[N+]([O-])c1ccc(CSc2c3ccccc3nc3ccccc23)cc1`: the TGI in the assay with SW-620 colon is more than 24.4 µM; in the assay with MALME-3M melanoma, 6.04 µM; in the assay on M14 melanoma it was 16.6 µM; with SK-OV-3 ovarian, 41.4 µM; in the assay with HCC-2998 colon it was 32.7 µM; with HOP-92 NSCLC it was more than 37.3 µM. Moreover, the TGI in the assay with NCI-H23 lung came out at 25.5 µM; in the assay on EKVX NSCLC, 34.7 µM; in the assay with HS 578T breast, 11.3 µM; with SF-539 CNS, 9.43 µM; in the assay on CAKI-1 renal, 29.6 µM; with HCT-15 colon it was 27.5 µM. For the same molecule, the TGI in the assay with HT29 colon is 6.36 µM; in the assay with OVCAR-4 ovarian it was 31.1 µM; with NCI/ADR-RES ovarian, 52.1 µM; with SF-268 CNS it was 22.8 µM; with SK-MEL-28 melanoma, 13.5 µM; in the assay on NCI-H226 lung, 35.8 µM. In addition, the TGI in the assay on OVCAR-3 ovarian was determined as 14.4 µM; in the assay on UACC-62 melanoma, 29.3 µM.
On to `COC(=O)c1c(O)ccc2c1c1cc3ccccc3c(O)c1n2Cc1ccccc1Cl`, for which the TGI in the assay on MALME-3M melanoma amounted to 74.7 µM; in the assay on M14 melanoma it was 59.1 µM; in the assay with SK-OV-3 ovarian, 48.6 µM; with HCC-2998 colon, 47.7 µM; in the assay with HOP-92 NSCLC it was 91.7 µM; in the assay on NCI-H23 lung, 46.2 µM. The TGI in the assay on EKVX NSCLC was found to be 87.1 µM; with HS 578T breast it was 84.4 µM; in the assay with SF-539 CNS, 33.7 µM; with CAKI-1 renal, 61.9 µM; in the assay on HCT-15 colon, 77.1 µM; in the assay on HT29 colon it was 25 µM. The TGI is 51.1 µM in the assay with OVCAR-4 ovarian; 64.3 µM in the assay on NCI/ADR-RES ovarian; 97.7 µM in the assay on SF-268 CNS; 46.4 µM with SK-MEL-28 melanoma; more than 100 µM with NCI-H226 lung; 39.8 µM in the assay on OVCAR-3 ovarian. The molecule also registered a TGI with UACC-62 melanoma of 65.4 µM.
